Assay results as given in the supplement of paper PMC11451515.

Experiments:
Conditions in all cases: 48 h
NOMO1 [1] = assay: AUC of viability dose-response curve (% viability x log10 dose units); higher = less sensitive
Procedure, shortened: (§1)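 Library compounds in DMSO were applied for 48 h at 37°C at 11 threefold doses (47 μM to 0.79 nM) to medium-adapted leukemia cells in 1536-well plates holding 500 or 1000 cells/well. Luminescence from CellTiter-Glo One was normalised plate by plate against DMSO and cell-free wells. Area under the curve came from trapezoidal integration of a log-logistic fit, after scaling curves that rose above full viability and discarding those that failed quality control. The fit had four parameters and used log10 doses.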

P12-Ichikawa [2] = assay: as above
Procedure, shortened: as §1

SEM cells [3] = assay: as above
Procedure, shortened: as §1

NOMO1 [4] = assay: cell viability relative to DMSO control; higher = less cytotoxic
Procedure, shortened: (§2)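 NOMO1, SEM and P12-Ichikawa leukemia cells spent at least four passages adapting to each medium before use. They were seeded at 500 cells/well (NOMO1, SEM) or 1000 cells/well (P12-Ichikawa) in 5 μl in 1536-well plates and pin-dosed with library compounds in DMSO at 11 threefold steps from 47 μM down to 0.79 nM. After 48 h at 37°C, CellTiter-Glo One luminescence was read. Viability is reported as a percentage of the DMSO wells on each plate, with cell-free wells as background.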

P12-Ichikawa [5] = assay: as above
Procedure, shortened: as §2

SEM cells [6] = assay: as above
Procedure, shortened: as §2

CC[C@@H]1[C@@H](C)O[C@@](O)([C@@H](C)[C@H](O)[C@H](C)[C@H]2OC(=O)/C=C/C=C/[C@H](C)[C@@H]([C@@H](C)[C@@H](O)[C@H](C)[C@@]3(O)C[C@@H](O[C@H]4C[C@H](O)[C@H](O)[C@H](C)O4)[C@H](CC)[C@@H](C)O3)OC(=O)/C=C/C=C/[C@@H]2C)C[C@H]1O[C@H]1C[C@H](O)[C@H](O)[C@H](C)O1
AUC of viability dose-response curve
Conditions	NOMO1 [1]	P12-Ichikawa [2]	SEM cells [3]
HPLM + 10% dialyzed FBS	370	374	368
RPMI 5 mM glucose + 10% FBS	366	403	357
RPMI 5 mM glucose + 10% dialyzed FBS	372	380	351

cell viability [%]
Conditions	NOMO1 [4]	P12-Ichikawa [5]	SEM cells [6]
HPLM + 10% dialyzed FBS, 0.000781 µM	–	–	98.9
HPLM + 10% dialyzed FBS, 0.00234 µM	–	–	114
HPLM + 10% dialyzed FBS, 0.00702 µM	–	–	115
HPLM + 10% dialyzed FBS, 0.0211 µM	–	–	104
HPLM + 10% dialyzed FBS, 0.0632 µM	–	–	130
HPLM + 10% dialyzed FBS, 0.19 µM	–	–	113
HPLM + 10% dialyzed FBS, 0.569 µM	–	–	105
HPLM + 10% dialyzed FBS, 1.71 µM	–	–	101
HPLM + 10% dialyzed FBS, 5.12 µM	–	–	6.3
HPLM + 10% dialyzed FBS, 15.4 µM	–	–	29.3
HPLM + 10% dialyzed FBS, 46.1 µM	–	–	5.37
RPMI 5 mM glucose + 10% FBS, 0.000781 µM	111	–	113
RPMI 5 mM glucose + 10% FBS, 0.00234 µM	117	–	106
RPMI 5 mM glucose + 10% FBS, 0.00702 µM	129	–	125
RPMI 5 mM glucose + 10% FBS, 0.0211 µM	121	–	101
RPMI 5 mM glucose + 10% FBS, 0.0632 µM	118	–	109
RPMI 5 mM glucose + 10% FBS, 0.19 µM	132	–	114
RPMI 5 mM glucose + 10% FBS, 0.569 µM	128	–	101
RPMI 5 mM glucose + 10% FBS, 1.71 µM	121	–	88.9
RPMI 5 mM glucose + 10% FBS, 5.12 µM	6.11	–	7.21
RPMI 5 mM glucose + 10% FBS, 15.4 µM	17.5	–	11.6
RPMI 5 mM glucose + 10% FBS, 46.1 µM	2.97	–	4.01
RPMI 5 mM glucose + 10% dialyzed FBS, 0.000781 µM	–	117	112
RPMI 5 mM glucose + 10% dialyzed FBS, 0.00234 µM	–	121	121
RPMI 5 mM glucose + 10% dialyzed FBS, 0.00702 µM	–	115	108
RPMI 5 mM glucose + 10% dialyzed FBS, 0.0211 µM	–	131	118
RPMI 5 mM glucose + 10% dialyzed FBS, 0.0632 µM	–	126	113
RPMI 5 mM glucose + 10% dialyzed FBS, 0.19 µM	–	127	128
RPMI 5 mM glucose + 10% dialyzed FBS, 0.569 µM	–	142	92.3
RPMI 5 mM glucose + 10% dialyzed FBS, 1.71 µM	–	139	77.1
RPMI 5 mM glucose + 10% dialyzed FBS, 5.12 µM	–	7.66	7.23
RPMI 5 mM glucose + 10% dialyzed FBS, 15.4 µM	–	60.8	19
RPMI 5 mM glucose + 10% dialyzed FBS, 46.1 µM	–	2.82	4.96

CCN(CCO)CCCOc1ccc2c(Nc3cc(CC(=O)Nc4cccc(F)c4)[nH]n3)ncnc2c1
AUC of viability dose-response curve
Conditions	NOMO1 [1]	P12-Ichikawa [2]	SEM cells [3]
HPLM + 10% dialyzed FBS	372	256	302
RPMI 5 mM glucose + 10% FBS	329	259	280
RPMI 5 mM glucose + 10% dialyzed FBS	355	287	282

cell viability [%]
Conditions	NOMO1 [4]	P12-Ichikawa [5]	SEM cells [6]
HPLM + 10% dialyzed FBS, 0.000781 µM	110	99.6	118
HPLM + 10% dialyzed FBS, 0.00234 µM	128	99.8	103
HPLM + 10% dialyzed FBS, 0.00702 µM	102	107	110
HPLM + 10% dialyzed FBS, 0.0211 µM	114	109	119
HPLM + 10% dialyzed FBS, 0.0632 µM	106	104	105
HPLM + 10% dialyzed FBS, 0.19 µM	85.7	43.9	82.5
HPLM + 10% dialyzed FBS, 0.569 µM	82.7	11.6	40.6
HPLM + 10% dialyzed FBS, 1.71 µM	76.2	10.8	32.3
HPLM + 10% dialyzed FBS, 5.12 µM	77.8	9.25	34.8
HPLM + 10% dialyzed FBS, 15.4 µM	81.6	9.18	20.6
HPLM + 10% dialyzed FBS, 46.1 µM	45.1	10.6	15.9
RPMI 5 mM glucose + 10% FBS, 0.000781 µM	113	102	114
RPMI 5 mM glucose + 10% FBS, 0.00234 µM	105	110	94.6
RPMI 5 mM glucose + 10% FBS, 0.00702 µM	120	115	118
RPMI 5 mM glucose + 10% FBS, 0.0211 µM	113	117	102
RPMI 5 mM glucose + 10% FBS, 0.0632 µM	98.5	108	119
RPMI 5 mM glucose + 10% FBS, 0.19 µM	65.6	45.4	76.4
RPMI 5 mM glucose + 10% FBS, 0.569 µM	50.5	16.7	22.4
RPMI 5 mM glucose + 10% FBS, 1.71 µM	44.7	14.1	19.7
RPMI 5 mM glucose + 10% FBS, 5.12 µM	40.9	11	21.9
RPMI 5 mM glucose + 10% FBS, 15.4 µM	54.1	10.5	12.2
RPMI 5 mM glucose + 10% FBS, 46.1 µM	54	16.3	5.9
RPMI 5 mM glucose + 10% dialyzed FBS, 0.000781 µM	110	102	100
RPMI 5 mM glucose + 10% dialyzed FBS, 0.00234 µM	110	112	113
RPMI 5 mM glucose + 10% dialyzed FBS, 0.00702 µM	105	111	108
RPMI 5 mM glucose + 10% dialyzed FBS, 0.0211 µM	111	111	109
RPMI 5 mM glucose + 10% dialyzed FBS, 0.0632 µM	104	114	104
RPMI 5 mM glucose + 10% dialyzed FBS, 0.19 µM	63.8	68.6	73.8
RPMI 5 mM glucose + 10% dialyzed FBS, 0.569 µM	52.6	20.7	25.5
RPMI 5 mM glucose + 10% dialyzed FBS, 1.71 µM	50.2	21	22.2
RPMI 5 mM glucose + 10% dialyzed FBS, 5.12 µM	51.7	21.1	25
RPMI 5 mM glucose + 10% dialyzed FBS, 15.4 µM	56.9	18.5	13.1
RPMI 5 mM glucose + 10% dialyzed FBS, 46.1 µM	80.6	26.9	4.04

O=C/1NC(=O)C(=C1C2=CN=C3C=CC=C[N]23)/C4=C[N]5CCN(CC6=C5C4=CC=C6)C(=O)N7CCOCC7
AUC of viability dose-response curve
Conditions	NOMO1 [1]	P12-Ichikawa [2]	SEM cells [3]
HPLM + 10% dialyzed FBS	470	334	138
RPMI 5 mM glucose + 10% FBS	465	301	153
RPMI 5 mM glucose + 10% dialyzed FBS	462	370	151

cell viability [%]
Conditions	HPLM + 10% dialyzed FBS	RPMI 5 mM glucose + 10% FBS	RPMI 5 mM glucose + 10% dialyzed FBS
NOMO1 [4], 0.000781 µM	–	109	–
NOMO1 [4], 0.00234 µM	–	121	–
NOMO1 [4], 0.00702 µM	–	137	–
NOMO1 [4], 0.0211 µM	–	136	–
NOMO1 [4], 0.0632 µM	–	140	–
NOMO1 [4], 0.19 µM	–	146	–
NOMO1 [4], 0.569 µM	–	144	–
NOMO1 [4], 1.71 µM	–	127	–
NOMO1 [4], 5.12 µM	–	144	–
NOMO1 [4], 15.4 µM	–	128	–
NOMO1 [4], 46.1 µM	–	144	–
SEM cells [6], 0.000781 µM	111	96.7	101
SEM cells [6], 0.00234 µM	104	106	102
SEM cells [6], 0.00702 µM	62.9	65.2	63.8
SEM cells [6], 0.0211 µM	14.5	17.9	22.2
SEM cells [6], 0.0632 µM	14.7	14.7	17.1
SEM cells [6], 0.19 µM	14.1	16.1	13.1
SEM cells [6], 0.569 µM	13.7	15	16.3
SEM cells [6], 1.71 µM	11.3	12.4	14
SEM cells [6], 5.12 µM	10.6	13.8	14.6
SEM cells [6], 15.4 µM	9.94	13.1	11.1
SEM cells [6], 46.1 µM	10.3	12.8	10.6
